Measured values from publication PMC10419252, “Synthesis, Properties, and Biomedical Application of Dicationic Gemini Surfactants with Dodecane Spacer and Carbamate Fragments” (International Journal of Molecular Sciences, 2023).
Where “and” joins values, the source holds several entries; their conditions need not be identical. Equal values may be shown once.

Key:
Conductometry = assay type: physicochemical; details: 298 K
Experimental: The electrical conductivity of the micellar solutions was determined on an InoLab Cond 7110 conductometer (WTW, Weilheim, Germany). For the experiment, surfactant solutions with a volume of 10 mL were prepared. The electrical conductivity of all solutions was recorded at 298 K, and the electrode was washed with purified water after each measurement. The cmc was determined from the breakpoint of the dependence of electrical conductivity on the concentration of surfactants.

[1] = test system: methicillin-resistant S. aureus MRSA-2 (resistant to beta-lactams); test: Antimicrobial activity (MRSA-2); assay type: cell-based; details: Staphylococcus aureus, MRSA
Experimental: (§1) The antimicrobial activity of the compounds was tested on Gram-positive Staphylococcus aureus ATCC 6538P FDA 209P (Sa), Bacillus cereus ATCC 10702 NCTC 8035 (Bc), Enterococcus faecalis ATCC 29212 (Ef), and Gram-negative bacteria Escherichia coli ATCC 25922 (Ec), Pseudomonas aeruginosa ATCC 9027 (Pa), including methicillin-resistant strains of S. aureus MRSA-1 (resistant to fluoroquinolones and beta-lactams) and MRSA-2 (resistant to beta-lactams). Antifungal activity was studied against Candida albicans ATCC 10231 (Ca), Trichophyton mentagrophytes var. gypseum 1773 (Tm), and Aspergillus niger BKMF-1119 (An). A more detailed description of the experiment is published in [21].

[2] = test system: Pseudomonas aeruginosa ATCC 9027; test: Antimicrobial activity (Pa); assay type: cell-based; details: Pseudomonas aeruginosa
Experimental: as §1

[3] = test system: Enterococcus faecalis ATCC 29212; test: Antimicrobial activity (Ef); assay type: cell-based; details: Enterococcus faecalis
Experimental: as §1

[4] = test system: Candida albicans ATCC 10231; test: Antifungal activity (Ca); assay type: cell-based; details: Candida albicans
Experimental: as §1

[5] = target: T1, human acetylcholinesterase (hAChE) (Homo sapiens, UniProt P22303); test: biochemical
T1 construct: purchased Sigma-Aldrich
Experimental: (§2) Stock solutions (0.01 M) of the compounds were dissolved in H2O. The inhibitory activity of compounds against hAChE and hBChE was measured using Ellman’s method. Enzyme-catalyzed hydrolysis was carried out in 0.1 M PBS (pH = 8.0) containing 0.1 nM hAChE or hBChE, 0.1 mM 5,5′-dithiobis-(2-nitrobenzoic acid) and 1mM acetylthiocholine or butyrylthiocholine as substrates. The tested compounds were incubated with the enzyme for 5 min prior to the addition of the substrate. Analyses were performed at 298 K using a Shimadzu UV-1800 spectrophotometer (Shimadzu Co., Kyoto, Japan) at 412 nm. The substrate hydrolysis rate was measured within 2 min. A sample without inhibitor was used as a control (100% cholinesterase activity). A sample without substrate was used as a blank. The experiments were conducted in triplicate. The percentage of enzyme inhibition was determined using OriginPro 8.5 software (OriginLab Corporation, Northampton, MA, USA) by plotting a percentage of the inhibition versus compound concentration. IC50 values (inhibitor concentration required to inhibit enzyme activity by 50%) were determined by the Hill equation: E/Emax=[I]^n/IC50n+[I]^n, where E is enzyme activity in the presence of the compound, and [I] is the compound concentration.

Pyrene fluorimetry = assay type: physicochemical; details: 298 K
Experimental: To determine cmc by fluorimetry, a hydrophobic probe pyrene was added to a series of surfactant solutions at a concentration of 1 μM. The solutions were kept for 30–40 min for complete solubilization of the probe. The fluorescent emission spectra of pyrene were recorded on an F-7100 fluorimeter (Hitachi, Tokyo, Japan) using 10 × 4 mm quartz cuvette (Hellma Analytics, Müllheim, Germany) with the following settings: λex = 335 nm, λem = 350–600 nm, and scanning speed = 1200 nm/min. The cmc was calculated from the dependence of the pyrene polarity index (the ratio of the intensities of the first (373 nm) and third (383 nm) peaks) on the surfactant concentration.

[6] = test system: Trichophyton mentagrophytes var. gypseum 1773; test: Antifungal activity (Tm); assay type: cell-based; details: Trichophyton mentagrophytes
Experimental: as §1

[7] = target: T2, human butyrylcholinesterase (hBChE) (Homo sapiens, UniProt P06276); test: In vitro cholinesterase inhibition, Ellman's method (hBChE); assay type: biochemical
T2 construct: purchased Sigma-Aldrich
Experimental: as §2

[8] = test system: Staphylococcus aureus ATCC 6538P FDA 209P; test: Antimicrobial activity (Sa); assay type: cell-based; details: Staphylococcus aureus
Experimental: as §1

[9] = test system: Aspergillus niger BKMF-1119; test: Antifungal activity (An); assay type: cell-based; details: Aspergillus niger
Experimental: as §1

[10] = Indomethacin solubilization, spectrophotometry; assay type: physicochemical; details: 298 K
Experimental: The cmc and the solubilizing capacity (S) of surfactants were determined using the spectral azo dye OOT and the non-steroidal anti-inflammatory drug IND. To obtain a saturated solution, an excess of OOT and IND was added to 2 mL of a surfactant solution, stirred, and kept for 48 and 24 h, respectively. After that, the solutions were filtered using Millex® Syringe Filters (Millipore, Burlington, MA, USA) with a pore size of 450 nm, and the optical density was measured. The absorption spectra were recorded on a Specord 250 Plus spectrophotometer (Analytik Jena AG, Jena, Germany). Quartz cells with a thickness of 1 and 0.5 cm (Hellma Analytics, Müllheim, Germany) were used for measurements.
The solubilizing capacity (S) was determined using the following formula:S = b/ε, where b is D/l = f (Csurf) dependency slope (above cmc), ε is the extinction coefficient (17,400 L/mol∙cm for OOT, and the extinction coefficients of IND are determined in GS solutions and presented in Figure S10).

[11] = test system: methicillin-resistant S. aureus MRSA-1 (resistant to fluoroquinolones and beta-lactams); test: Antimicrobial activity (MRSA-1); assay type: cell-based; details: Staphylococcus aureus, MRSA
Experimental: as §1

[12] = test system: Escherichia coli ATCC 25922; test: Antimicrobial activity (Ec); assay type: cell-based; details: Escherichia coli
Experimental: as §1

T1 sequence (P22303 32-614): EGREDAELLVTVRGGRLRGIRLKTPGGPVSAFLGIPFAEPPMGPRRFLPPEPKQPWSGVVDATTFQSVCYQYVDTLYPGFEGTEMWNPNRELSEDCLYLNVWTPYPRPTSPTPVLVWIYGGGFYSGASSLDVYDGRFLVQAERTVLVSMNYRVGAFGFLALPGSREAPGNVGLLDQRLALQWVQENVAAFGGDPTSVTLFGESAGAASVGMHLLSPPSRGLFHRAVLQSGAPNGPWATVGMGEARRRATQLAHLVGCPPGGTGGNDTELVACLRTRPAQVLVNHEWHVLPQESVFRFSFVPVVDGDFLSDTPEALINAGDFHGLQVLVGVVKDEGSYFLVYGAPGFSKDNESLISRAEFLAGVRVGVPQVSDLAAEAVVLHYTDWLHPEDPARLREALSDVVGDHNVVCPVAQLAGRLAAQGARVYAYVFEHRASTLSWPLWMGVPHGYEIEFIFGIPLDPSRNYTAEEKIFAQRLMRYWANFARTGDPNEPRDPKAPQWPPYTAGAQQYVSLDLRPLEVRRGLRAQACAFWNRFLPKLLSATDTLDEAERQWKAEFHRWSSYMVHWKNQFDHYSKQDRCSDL
T2 sequence (P06276 29-602): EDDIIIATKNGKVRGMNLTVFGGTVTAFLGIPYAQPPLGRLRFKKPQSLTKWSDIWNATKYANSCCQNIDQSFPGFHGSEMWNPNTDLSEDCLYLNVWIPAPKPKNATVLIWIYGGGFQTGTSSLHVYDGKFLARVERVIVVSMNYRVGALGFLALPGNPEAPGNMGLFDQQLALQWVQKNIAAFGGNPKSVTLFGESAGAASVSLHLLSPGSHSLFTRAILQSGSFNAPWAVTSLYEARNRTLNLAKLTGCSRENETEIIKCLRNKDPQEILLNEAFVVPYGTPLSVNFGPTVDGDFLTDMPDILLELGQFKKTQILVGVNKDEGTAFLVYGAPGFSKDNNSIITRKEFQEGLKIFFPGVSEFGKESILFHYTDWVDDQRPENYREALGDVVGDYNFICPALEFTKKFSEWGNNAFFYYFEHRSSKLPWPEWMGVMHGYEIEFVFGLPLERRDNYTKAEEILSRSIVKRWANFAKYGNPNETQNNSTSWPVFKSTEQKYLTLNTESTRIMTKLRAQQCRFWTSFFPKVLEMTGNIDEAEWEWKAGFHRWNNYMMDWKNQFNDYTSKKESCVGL

Q: With `CCCCCCCCCCCCCC[N+](C)(CCCCCCCCCCCC[N+](C)(CCCCCCCCCCCCCC)CCOC(=O)NCC)CCOC(=O)NCC` (stereo not shown) [14-12-14(Et)] as the compound, how does the cmccond (Conductometry) read?
A: The cmccond was 0.05 mM and 0.05 ± 0.0013 mM.

Q: And the “βcond (degree of counterion binding)” value (Conductometry)?
A: Its value is 0.44.

Q: And the MBC ([1]; read-out: MBC, MRSA-2)?
A: Its MBC is 7.8 ± 0.7 µg/mL.

Q: And the MIC ([1]; read-out: MIC, MRSA-2)?
A: Its MIC is 7.8 ± 0.7 µg/mL.

Q: And the MBC ([2]; ATCC9027, read-out: MBC, Pa)?
A: Its MBC is 125 ± 10 µg/mL.

Q: What about the MIC ([2]; ATCC9027, read-out: MIC, Pa) of the same compound?
A: The MIC was 125 ± 10 µg/mL.

Q: And the MBC ([3]; ATCC29212, read-out: MBC, Ef)?
A: Its MBC is 3.9 ± 0.2 µg/mL.

Q: What about the MIC ([3]; ATCC29212, read-out: MIC, Ef) of the same compound?
A: The MIC was 3.9 ± 0.3 µg/mL.

Q: And the MFC ([4]; ATCC10231, read-out: MFC, Ca)?
A: The MFC was 250 ± 21 µg/mL.

Q: And the MIC ([4]; ATCC10231, read-out: MIC, Ca)?
A: Its MIC is 250 ± 19 µg/mL.

Q: What about the IC50 [5] of the same compound?
A: Its IC50 is 11 ± 0.5 nM.

Q: What about the “SIhBChE/hAChE (selectivity index)” value ([5]; IC50 hBChE / IC50 hAChE) of the same compound?
A: The value was 131.

Q: And the “cmc, Fluorimetry” value (Pyrene fluorimetry)?
A: Its value is 0.014 mM and 0.014 ± 0.0004 mM.

Q: What about the MFC ([6]; read-out: MFC, Tm) of the same compound?
A: Its MFC is 250 ± 18 µg/mL.

Q: What about the MIC ([6]; read-out: MIC, Tm) of the same compound?
A: The MIC was 250 ± 19 µg/mL.

Q: And the IC50 [7]?
A: The IC50 was 1440 ± 520 nM.

Q: What about the MBC ([8]; read-out: MBC, Sa) of the same compound?
A: Its MBC is 3.9 ± 0.3 µg/mL.

Q: What about the MIC ([8]; read-out: MIC, Sa) of the same compound?
A: The MIC was 3.9 ± 0.2 µg/mL.

Q: And the MFC ([9]; BKMF1119, read-out: MFC, An)?
A: Its MFC is > 250 µg/mL.

Q: And the MIC ([9]; BKMF1119, read-out: MIC, An)?
A: The MIC was > 250 µg/mL.

Q: And the “S (solubilizing capacity), IND” value [10]?
A: Its value is 1.51 molprobe/molGS.

Q: What about the MBC ([11]; read-out: MBC, MRSA-1) of the same compound?
A: The MBC was 7.8 ± 0.6 µg/mL.

Q: What about the MIC ([11]; read-out: MIC, MRSA-1) of the same compound?
A: The MIC was 7.8 ± 0.6 µg/mL.

Q: And the MBC ([12]; ATCC25922, read-out: MBC, Ec)?
A: The MBC was 31.3 ± 2.6 µg/mL.

Q: What about the MIC ([12]; ATCC25922, read-out: MIC, Ec) of the same compound?
A: Its MIC is 31.3 ± 2.5 µg/mL.
